Results on 24 compounds are retold here after patent US20240425501A1, “NOVEL BICYCLIC HETEROARYL DERIVATIVES AS SOS1:KRAS PROTEINPROTEIN INTERACTION INHIBITORS” (SATYARX PHARMA INNOVATIONS PVT LTD, priority 2021, published 2024).

This assay concerns the target T1, hSOS1 enzyme / KRAS (G12C), GST-Tag, GDP-bound protein (Homo sapiens, UniProt Q07889).
T1 sequence (Q07889 564-1049 limits assumed): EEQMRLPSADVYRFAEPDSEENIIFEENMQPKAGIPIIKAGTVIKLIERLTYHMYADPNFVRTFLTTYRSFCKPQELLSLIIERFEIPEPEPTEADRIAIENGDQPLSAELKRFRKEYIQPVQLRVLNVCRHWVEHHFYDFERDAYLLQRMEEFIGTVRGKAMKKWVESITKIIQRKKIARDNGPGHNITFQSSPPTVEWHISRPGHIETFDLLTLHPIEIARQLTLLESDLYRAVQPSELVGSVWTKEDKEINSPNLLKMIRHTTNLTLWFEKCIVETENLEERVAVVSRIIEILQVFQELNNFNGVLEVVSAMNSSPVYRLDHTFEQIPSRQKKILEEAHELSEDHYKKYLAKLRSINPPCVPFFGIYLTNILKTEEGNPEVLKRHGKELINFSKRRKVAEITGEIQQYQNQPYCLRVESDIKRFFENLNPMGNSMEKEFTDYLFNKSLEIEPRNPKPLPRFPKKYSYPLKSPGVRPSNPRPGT
Briefly: SOS1-mediated KRAS guanine nucleotide exchange (GEF) assay, HTRF ("On Assay"). Type of assay: biochemical. Conditions: 1 μM compound. As to the method: Biochemical Assay: Measurement of SOS1-Mediated KRAS Guanine Nucleotide Exchange (GEF) Assay
This assay quantifies the HTRF-based SOS1 mediated guanine nucleotide exchange assay detecting GTP binding to KRAS (G12C), GST-Tag, GDP-bound protein. This is also referred as “On Assay”.The assay buffer composition is as follows: 10 mM HEPES pH-7, 150 mM NaCl, 5 mM MgCl2, 1 mM DTT, 0.05% BSA, 0.0025% IGEPAL CA-630 and MilliQ water. 0.5 μl of compounds diluted in assay buffer were dispensed into the respective wells of 384 black well test plate. 4.75 μl of KRAS working solution containing 100 nM KRAS (G12C), GST-Tag, GDP-bound protein GDP-loaded (Reaction biology) and 2 nM Anti GST-Tb cryptate (FRET donor, Cisbio) was added in assay buffer. The components were incubated for 10 min at 25° C.
4.75 μl of hSOS1 working solution containing 20 nM hSOS1 enzyme and 200 nM EDA-GTP-DY-647P (FRET acceptor, synthesized by Jena Bioscience (Germany), supplied as a 1 mM solution) was further added in assay buffer. 4.75 μl of inhibitor control having only 200 nM EDA-GTP-DY-647P1 component without hSOS1 working solution was added in the negative control well. The plate was short spun for few seconds and incubated for 10 min. HTRF was measured using Perkin Elmer-Nivo 5F multimode plate reader.
HTRF settings: EXCITATION FILTER—320/75 nm, EMISSION FILTER (1) —615/8 nm, EMISSION FILTER (2)—665/8 nm
On the technique in general: TR-FRET usually uses a lanthanide donor and a delayed reading to cut background.
For the compound `C[C@@H](Nc1nc(Cl)nc2cnc(N3CCCC3)cc12)c1cc(N)cc(C(F)(F)F)c1` [Example 1, (R)—N-(1-(3-amino-5-(trifluoromethyl)phenyl)ethyl)-2-chloro-6-(pyrrolidin-1-yl)pyrido[3,4-d]pyrimidin-4-amine], the inhibition at 1 µM is at least 50%. `C[C@@H](Nc1nc(N(C)C)nc2cnc(N3CCCC3)cc12)c1cc(N)cc(C(F)(F)F)c1` [Example 2, N4—(R)-(1-(3-amino-5-(trifluoromethyl)phenyl)ethyl)-N2,N2-dimethyl-6-(pyrrolidin-1-yl)pyrido[3,4-d]pyrimidine-2,4-diamine]: the inhibition at 1 µM was at least 50%.

The compound `COc1nc(N[C@H](C)c2cc(N)cc(C(F)(F)F)c2)c2cc(N3CCCC3)ncc2n1` [Example 3, (R)—N-(1-(3-amino-5-(trifluoromethyl)phenyl)ethyl)-2-methoxy-6-(pyrrolidin-1-yl)pyrido[3,4-d]pyrimidin-4-amine] yielded an inhibition at 1 µM of at least 50%.

As for `COCCOc1nc(N[C@H](C)c2cc(N)cc(C(F)(F)F)c2)c2cc(N3CCCC3)ncc2n1` [Example 4, (R)—N-(1-(3-amino-5-(trifluoromethyl)phenyl)ethyl)-2-(2-methoxyethoxy)-6-(pyrrolidin-1-yl)pyrido[3,4-d]pyrimidin-4-amine], the inhibition at 1 µM is at least 50%. For `C[C@@H](Nc1nc(N2CCOCC2)nc2cnc(N3CCCC3)cc12)c1cc(N)cc(C(F)(F)F)c1` [Example 5, (R)—N-(1-(3-amino-5-(trifluoromethyl)phenyl)ethyl)-2-morpholino-6-(pyrrolidin-1-yl)pyrido[3,4-d]pyrimidin-4-amine] the value was below 50%. For `C[C@@H](Nc1nc(N2CCN(C)CC2)nc2cnc(N3CCCC3)cc12)c1cc(N)cc(C(F)(F)F)c1` [Example 6, (R)—N-(1-(3-amino-5-(trifluoromethyl)phenyl)ethyl)-2-(4-methylpiperazin-1-yl)-6-(pyrrolidin-1-yl)pyrido[3,4-d]pyrimidin-4-amine] the value was below 50%; for `CNc1nc(N[C@H](C)c2cc(N)cc(C(F)(F)F)c2)c2cc(N3CCCC3)ncc2n1` [Example 7, (R)—N4-(1-(3-amino-5-(trifluoromethyl)phenyl)ethyl)-N2-methyl-6-(pyrrolidin-1-yl)pyrido[3,4-d]pyrimidine-2,4-diamine], at least 50%.

As for `C[C@@H](Nc1nc(N(C)C)nc2cnc(N3CCOCC3)cc12)c1cc(N)cc(C(F)(F)F)c1` [Example 8, (R)—N4-(1-(3-amino-5-(trifluoromethyl)phenyl)ethyl)-N2,N2-dimethyl-6-morpholinopyrido[3,4-d]pyrimidine-2,4-diamine], the inhibition at 1 µM is at least 50%. As for `C[C@@H](Nc1nc(NCCN(C)C)nc2cnc(N3CCCC3)cc12)c1cc(N)cc(C(F)(F)F)c1` [Example 9, (R)—N4-(1-(3-amino-5-(trifluoromethyl)phenyl)ethyl)-N2-(2-(dimethylamino)ethyl)-6-(pyrrolidin-1-yl)pyrido[3,4-d]pyrimidine-2,4-diamine], the inhibition at 1 µM was at least 50%. Then `C[C@@H](Nc1nc(N(C)CCN(C)C)nc2cnc(N3CCCC3)cc12)c1cc(N)cc(C(F)(F)F)c1` [Example 10, (R)—N4-(1-(3-amino-5-(trifluoromethyl)phenyl)ethyl)-N2-(2-(dimethylamino)ethyl)-N2-methyl-6-(pyrrolidin-1-yl)pyrido[3,4-d]pyrimidine-2,4-diamine], with at least 50%.

As for `C[C@@H](Nc1nc(OCCO)nc2cnc(N3CCCC3)cc12)c1cc(N)cc(C(F)(F)F)c1` [Example 11, (R)-2-((4-((1-(3-amino-5-(trifluoromethyl)phenyl)ethyl)amino)-6-(pyrrolidin-1-yl)pyrido[3,4-d]pyrimidin-2-yl)oxy)ethan-1-ol], the inhibition at 1 µM is at least 50%. Then `C[C@@H](Nc1nc(NCCO)nc2cnc(N3CCCC3)cc12)c1cc(N)cc(C(F)(F)F)c1` [Example 12, (R)-2-((4-((1-(3-amino-5-(trifluoromethyl)phenyl)ethyl)amino)-6-(pyrrolidin-1-yl)pyrido[3,4-d]pyrimidin-2-yl)amino)ethan-1-ol], with at least 50%. Compound `C[C@@H](Nc1nc(N(C)CCO)nc2cnc(N3CCCC3)cc12)c1cc(N)cc(C(F)(F)F)c1` [Example 13, (R)-2-((4-((1-(3-amino-5-(trifluoromethyl)phenyl)ethyl)amino)-6-(pyrrolidin-1-yl)pyrido[3,4-d]pyrimidin-2-yl)(methyl)amino)ethan-1-ol] returned an inhibition at 1 µM of at least 50%. Then `COCCNc1nc(N[C@H](C)c2cc(N)cc(C(F)(F)F)c2)c2cc(N3CCCC3)ncc2n1` [Example 14, (R)—N4-(1-(3-amino-5-(trifluoromethyl)phenyl)ethyl)-N2-(2-methoxyethyl)-6-(pyrrolidin-1-yl)pyrido[3,4-d]pyrimidine-2,4-diamine], with at least 50%. Take `COCCN(C)c1nc(N[C@H](C)c2cc(N)cc(C(F)(F)F)c2)c2cc(N3CCCC3)ncc2n1` [Example 15, (R)—N4-(1-(3-amino-5-(trifluoromethyl)phenyl)ethyl)-N2-(2-methoxyethyl)-N2-methyl-6-(pyrrolidin-1-yl)pyrido[3,4-d]pyrimidine-2,4-diamine]: the inhibition at 1 µM was at least 50%. For `C[C@@H](Nc1nc(N2CCC2)nc2cnc(N3CCCC3)cc12)c1cc(N)cc(C(F)(F)F)c1` [Example 16, (R)—N-(1-(3-amino-5-(trifluoromethyl)phenyl)ethyl)-2-(azetidin-1-yl)-6-(pyrrolidin-1-yl)pyrido[3,4-d]pyrimidin-4-amine] the value was at least 50%; for `C[C@@H](Nc1nc(N2CCCC2)nc2cnc(N3CCCC3)cc12)c1cc(N)cc(C(F)(F)F)c1` [Example 17, (R)—N-(1-(3-amino-5-(trifluoromethyl)phenyl)ethyl)-2,6-di(pyrrolidin-1-yl)pyrido[3,4-d]pyrimidin-4-amine], at least 50%; for `CNc1nc(N[C@H](C)c2cc(N)cc(C(F)(F)F)c2)c2cc(N3CCOCC3)ncc2n1` [Example 18, (R)—N4-(1-(3-amino-5-(trifluoromethyl)phenyl)ethyl)-N2-methyl-6-morpholinopyrido[3,4-d]pyrimidine-2,4-diamine], at least 50%. For `C[C@@H](Nc1nc(Cl)nc2cnc(N3CCOCC3)cc12)c1cc(N)cc(C(F)(F)F)c1` [Example 19, (R)—N-(1-(3-amino-5-(trifluoromethyl)phenyl)ethyl)-2-chloro-6-morpholinopyrido[3,4-d]pyrimidin-4-amine] the value was at least 50%; for `COC1CCN(c2cc3c(N[C@H](C)c4cc(N)cc(C(F)(F)F)c4)nc(Cl)nc3cn2)CC1` [Example 20, (R)—N-(1-(3-amino-5-(trifluoromethyl)phenyl)ethyl)-2-chloro-6-(4-methoxypiperidin-1-yl)pyrido[3,4-d]pyrimidin-4-amine], at least 50%. For `C[C@@H](Nc1nc(Cl)nc2cnc(N3CCC(F)(F)CC3)cc12)c1cc(N)cc(C(F)(F)F)c1` [Example 21, (R)—N-(1-(3-amino-5-(trifluoromethyl)phenyl)ethyl)-2-chloro-6-(4,4-difluoropiperidin-1-yl)pyrido[3,4-d]pyrimidin-4-amine] the value was at least 50%.

For `C[C@@H](Nc1nc(Cl)nc2cnc(N3CCC(F)CC3)cc12)c1cc(N)cc(C(F)(F)F)c1` [Example 22, (R)—N-(1-(3-amino-5-(trifluoromethyl)phenyl)ethyl)-2-chloro-6-(4-fluoropiperidin-1-yl)pyrido[3,4-d]pyrimidin-4-amine], the inhibition at 1 µM was at least 50%. For `C[C@@H](Nc1nc(Cl)nc2cnc(N3CCN(C)CC3)cc12)c1cc(N)cc(C(F)(F)F)c1` [Example 23, (R)—N-(1-(3-amino-5-(trifluoromethyl)phenyl)ethyl)-2-chloro-6-(4-methylpiperazin-1-yl)pyrido[3,4-d]pyrimidin-4-amine] the value was at least 50%. Then `CCN1CCN(c2cc3c(N[C@H](C)c4cc(N)cc(C(F)(F)F)c4)nc(Cl)nc3cn2)CC1` [Example 24, (R)—N-(1-(3-amino-5-(trifluoromethyl)phenyl)ethyl)-2-chloro-6-(4-ethylpiperazin-1-yl)pyrido[3,4-d]pyrimidin-4-amine], with at least 50%.

The term inhibition denotes the drop in the measured response relative to a control, in per cent.
